Experimental data reported in patent US12180207B2 (ARRAY BIOPHARMA INC., priority 2018, dated 2024).

Legend:
[1] = target: dephosphorylated FGFR1 (SEQ ID NO: 1, amino acids 458 to 765) (Homo sapiens (Human), UniProt P11362); test: FGFR enzyme binding assay (HTRF tracer displacement), FGFR1; conditions: 5 nM dephosphorylated FGFR1, average of multiple determinations if made
Summary of the method: (§1)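 Compounds were tested for displacement of a tracer from human FGFR kinase in a time-resolved FRET binding format. After 60 minutes at 22° C, signal was read at two wavelengths and converted to percent of control, normalised between untreated wells and 1 μM reference inhibitor.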

[2] = target: HEK-293 cells transfected with dox-inducible human wild type FGFR3 (Homo sapiens (Human), UniProt P22607); test: FGFR3 pERK cell assay; assay type: cell-based; conditions: HEK-293 dox-inducible FGFR3, 1 hour compound, 100 ng/ml FGF-acidic; maximum concentration 5 μM
Sequence of HEK-293 cells transfected with dox-inducible human wild type FGFR3 (P22607 23-806): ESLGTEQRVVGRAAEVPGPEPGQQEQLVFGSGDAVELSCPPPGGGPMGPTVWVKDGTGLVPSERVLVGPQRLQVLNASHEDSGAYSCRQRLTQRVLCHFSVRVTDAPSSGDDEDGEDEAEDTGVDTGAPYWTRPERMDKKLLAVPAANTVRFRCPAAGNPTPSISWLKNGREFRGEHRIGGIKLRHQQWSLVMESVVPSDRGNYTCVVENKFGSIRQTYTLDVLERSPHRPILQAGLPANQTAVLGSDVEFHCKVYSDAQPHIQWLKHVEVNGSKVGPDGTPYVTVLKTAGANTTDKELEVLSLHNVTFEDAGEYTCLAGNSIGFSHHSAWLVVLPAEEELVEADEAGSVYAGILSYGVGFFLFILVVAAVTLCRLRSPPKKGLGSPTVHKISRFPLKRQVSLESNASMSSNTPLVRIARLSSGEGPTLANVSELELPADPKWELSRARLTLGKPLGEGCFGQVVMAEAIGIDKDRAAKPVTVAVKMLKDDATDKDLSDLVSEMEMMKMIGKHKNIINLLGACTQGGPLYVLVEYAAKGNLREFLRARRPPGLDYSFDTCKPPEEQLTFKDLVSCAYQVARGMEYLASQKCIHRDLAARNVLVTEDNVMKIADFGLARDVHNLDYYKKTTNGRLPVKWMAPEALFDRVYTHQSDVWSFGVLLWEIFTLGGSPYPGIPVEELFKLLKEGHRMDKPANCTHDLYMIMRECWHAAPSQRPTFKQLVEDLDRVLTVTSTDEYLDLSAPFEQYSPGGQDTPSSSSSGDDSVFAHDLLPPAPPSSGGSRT
Method: (§2) FGFR3 pERK Cell Assay: • HEK-293 cells transfected with dox-inducible human wild type FGFR3 (SEQ ID NO: 5) were plated in a collagen or poly-D-lysine coated 96 well flat bottom plates at 4×10^5 cells/well in complete DMEM medium containing 10% FBS and 1 μg/ml doxycycline and allowed to attach for 24 h at 37° C., 5% CO2. Cells were treated with compound using 1:3 serial dilutions with a maximum final concentration of 5 μM. Compound was incubated on cells for 1 hour at 37° C., 5% CO2. Cells were then stimulated with a final concentration of 100 ng/ml human FGF-acidic (R&D Systems Cat number 232-FA/CF) for 5 minutes at 37° C., 5% CO2. Medium was removed, and cells were lysed with lysis buffer containing phosphatase and protease inhibitors. Phospho ERK1/2 was measured using the Meso Scale Discovery sandwich assay (Meso Scale Discovery cat. no. K151DWD). The assay captures phospho ERK1/2 and detects with a sulfo-tagged total ERK1/2 antibody. The chemiluminescent signal was read on the Sector Imager Plate reader. 100 POC was determined using no test compounds and 0 POC was determined using a control compound. The POC values were fit to a 4-parameter logistic curve as a function of the concentration of the compound, and the IC50 value is the point where the curve crosses 50 POC.

[3] = target: recombinant human FGFR2 cytoplasmic domain (amino acids 403-822) (Homo sapiens (Human), UniProt P21802); test: FGFR2 enzyme activity assay (LanthaScreen TR-FRET); assay type: biochemical; conditions: 15 μM ATP, 20 min incubation at 22° C., average of multiple determinations if made, read-out: FGFR2 Enz FRET IC50
Sequence of recombinant human FGFR2 cytoplasmic domain (amino acids 403-822) (P21802 402-821): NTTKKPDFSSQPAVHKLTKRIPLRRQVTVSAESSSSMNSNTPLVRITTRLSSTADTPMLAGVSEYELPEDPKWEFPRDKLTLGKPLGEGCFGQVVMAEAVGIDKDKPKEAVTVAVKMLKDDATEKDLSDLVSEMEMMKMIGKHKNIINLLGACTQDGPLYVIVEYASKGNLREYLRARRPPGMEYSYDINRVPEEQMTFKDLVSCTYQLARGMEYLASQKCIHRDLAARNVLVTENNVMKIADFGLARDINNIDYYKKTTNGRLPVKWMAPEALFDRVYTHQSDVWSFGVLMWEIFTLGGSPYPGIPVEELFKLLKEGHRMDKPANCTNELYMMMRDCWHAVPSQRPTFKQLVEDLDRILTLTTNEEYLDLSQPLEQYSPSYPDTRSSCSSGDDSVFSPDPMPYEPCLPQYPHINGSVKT
Summary of the method: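 His-tagged FGFR2 cytoplasmic domain ([…]) with 100 nM Alexa Fluor 647-poly-GT peptide and 15 μM ATP in HEPES/MgCl2/Triton buffer, pH 7.5, 2% DMSO, 20 min at 22 °C. EDTA-quenched, Eu-PY20 antibody added, TR-FRET read after 60 min.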

[4] = target: HEK-293 cells transfected with dox-inducible human wild type FGFR1 (Homo sapiens (Human), UniProt P11362); test: FGFR1 pERK cell assay; assay type: cell-based; conditions: HEK-293 dox-inducible FGFR1, 1 hour compound, 100 ng/ml FGF-acidic; maximum concentration 5 μM
Sequence of HEK-293 cells transfected with dox-inducible human wild type FGFR1 (P11362 22-822): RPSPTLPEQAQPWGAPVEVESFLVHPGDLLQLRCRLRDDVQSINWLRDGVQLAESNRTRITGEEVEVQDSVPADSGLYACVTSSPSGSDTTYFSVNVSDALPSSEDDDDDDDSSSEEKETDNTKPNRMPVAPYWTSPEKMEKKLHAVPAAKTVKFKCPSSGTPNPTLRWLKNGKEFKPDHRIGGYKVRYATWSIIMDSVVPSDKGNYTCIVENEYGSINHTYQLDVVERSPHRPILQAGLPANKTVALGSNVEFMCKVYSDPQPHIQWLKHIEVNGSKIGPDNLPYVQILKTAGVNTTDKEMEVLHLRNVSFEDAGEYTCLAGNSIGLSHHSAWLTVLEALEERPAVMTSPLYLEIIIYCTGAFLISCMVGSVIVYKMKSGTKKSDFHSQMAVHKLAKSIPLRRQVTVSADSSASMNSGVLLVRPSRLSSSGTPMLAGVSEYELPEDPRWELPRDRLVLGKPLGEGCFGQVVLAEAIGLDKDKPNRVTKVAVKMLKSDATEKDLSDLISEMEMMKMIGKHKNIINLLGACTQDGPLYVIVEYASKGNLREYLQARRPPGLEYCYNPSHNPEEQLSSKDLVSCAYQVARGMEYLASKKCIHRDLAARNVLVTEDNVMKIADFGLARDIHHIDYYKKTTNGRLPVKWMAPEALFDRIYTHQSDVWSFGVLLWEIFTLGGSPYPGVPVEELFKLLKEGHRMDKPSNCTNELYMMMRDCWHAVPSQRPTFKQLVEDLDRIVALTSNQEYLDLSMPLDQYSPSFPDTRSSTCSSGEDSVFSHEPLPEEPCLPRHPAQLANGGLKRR
Method: as §2, with “FGFR1” for “FGFR3”, “doxycycline(dox)-inducible” for “dox-inducible”, “1)” for “5)”, “Dulbecco's Modified Eagle Medium (DMEM)” for “DMEM medium”, “compound” for “compounds”

[5] = target: phosphorylated FGFR3 (SEQ ID NO: 5, amino acids 449 to 759) (Homo sapiens (Human), UniProt P22607); test: FGFR enzyme binding assay (HTRF tracer displacement), FGFR3; conditions: 5 nM phosphorylated FGFR3, average of multiple determinations if made
Sequence of phosphorylated FGFR3 (SEQ ID NO: 5, amino acids 449 to 759) (P22607 449-759): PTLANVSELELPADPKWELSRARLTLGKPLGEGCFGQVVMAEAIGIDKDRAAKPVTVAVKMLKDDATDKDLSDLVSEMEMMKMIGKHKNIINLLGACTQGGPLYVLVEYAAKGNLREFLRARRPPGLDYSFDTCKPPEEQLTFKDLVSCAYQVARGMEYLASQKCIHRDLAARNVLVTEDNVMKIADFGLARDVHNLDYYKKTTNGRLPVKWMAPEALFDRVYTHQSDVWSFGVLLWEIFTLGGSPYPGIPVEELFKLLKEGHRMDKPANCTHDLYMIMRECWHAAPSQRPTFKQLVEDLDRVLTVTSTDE
Summary of the method: as §1

Sequence of dephosphorylated FGFR1 (SEQ ID NO: 1, amino acids 458 to 765) (P11362 458-765): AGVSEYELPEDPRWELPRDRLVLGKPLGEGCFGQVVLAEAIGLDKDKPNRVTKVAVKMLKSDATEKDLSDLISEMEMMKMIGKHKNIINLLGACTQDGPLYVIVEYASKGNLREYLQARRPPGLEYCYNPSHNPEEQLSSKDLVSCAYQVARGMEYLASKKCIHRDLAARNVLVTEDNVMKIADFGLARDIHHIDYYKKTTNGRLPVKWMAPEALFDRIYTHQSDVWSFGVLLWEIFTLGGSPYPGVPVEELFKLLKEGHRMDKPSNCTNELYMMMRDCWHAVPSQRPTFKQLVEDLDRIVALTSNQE

| IC50 [1] [µM] | IC50 [2] [µM] | IC50 [3] [µM] | IC50 [4] [µM] | IC50 [5] [µM] | SMILES |
| --- | --- | --- | --- | --- | --- |
| 0.388 | 0.186 | 0.042 | 1.57 | 0.045 | C=CC(=O)N1CC(C(=O)N2CCN(c3ncc(-c4cc(OC)c5c(C#N)cnn5c4)cc3C)CC2)C1 [Example 113, 6-(6-(4-(1-acryloylazetidine-3-carbonyl)piperazin-1-yl)-5-methylpyridin-3-yl)-4-methoxypyrazolo[1,5-a]pyridine-3-carbonitrile] |
| 0.035 | 0.04 | 0.004 | 0.342 | 0.003 | C=CC(=O)N1CCN(C(=O)N2CCC(n3cc(-c4cc(OC)c5c(C#N)cnn5c4)cn3)CC2)C[C@@H]1CC#N [Example 135, (S)-6-(1-(1-(4-acryloyl-3-(cyanomethyl)piperazine-1-carbonyl)piperidin-4-yl)-1H-pyrazol-4-yl)-4-methoxypyrazolo[1,5-a]pyridine-3-carbonitrile] |
| 0.455 | 0.062 | 0.239 | 0.674 | 0.009 | C=CC(=O)N1CC(CN2CCC(n3ncc(-c4cc(OC)c5c(Cl)cnn5c4)c3C)CC2)C1 [Example 118, 1-(3-((4-(4-(3-chloro-4-methoxypyrazolo[1,5-a]pyridin-6-yl)-5-methyl-1H-pyrazol-1-yl)piperidin-1-yl)methyl)azetidin-1-yl)prop-2-en-1-one] |
| 0.044 | 0.044 | 0.011 | 0.239 | 0.006 | C=CC(=O)N1CC(C(=O)N2CCC3(CC2)CN(c2ccc(-c4cc(OC)c5c(C#N)cnn5c4)cn2)C3)C1 [Example 102, 6-(6-(7-(1-acryloylazetidine-3-carbonyl)-2,7-diazaspiro[3.5]nonan-2-yl)pyridin-3-yl)-4-methoxypyrazolo[1,5-a]pyridine-3-carbonitrile] |
| 0.027 | 0.016 | 0.003 | 0.116 | 0.002 | C#CC(=O)N1CC(C(=O)N2CCC(n3cc(-c4cc(OC)c5c(C#N)cnn5c4)cn3)CC2)C1 [Example 138, 4-methoxy-6-(1-(1-(1-propioloylazetidine-3-carbonyl)piperidin-4-yl)-1H-pyrazol-4-yl)pyrazolo[1,5-a]pyridine-3-carbonitrile] |
| 0.675 | 0.098 | 0.324 | 1.07 | 0.026 | C=CC(=O)N1CC(OC)(C(=O)N2CCC(n3nc(C)c(-c4cc(OC)c5c(C#N)cnn5c4)c3C)CC2)C1 [Example 95, 6-(1-(1-(1-acryloyl-3-methoxyazetidine-3-carbonyl)piperidin-4-yl)-3,5-dimethyl-1H-pyrazol-4-yl)-4-methoxypyrazolo[1,5-a]pyridine-3-carbonitrile] |
| 0.274 | 1.15 | 0.03 | ≥ 5 | 0.006 | COc1cc(-c2cnn(C3CCN(C(=O)C4(C)CN(C(=O)/C=C/CN(C)C)C4)CC3)c2C)cn2ncc(C#N)c12 [Example 157, (E)-6-(1-(1-(1-(4-(dimethylamino)but-2-enoyl)-3-methylazetidine-3-carbonyl)piperidin-4-yl)-5-methyl-1H-pyrazol-4-yl)-4-methoxypyrazolo [1,5-a]pyridine-3-carbonitrile] |
| 0.426 | 0.031 | 0.114 | 0.157 | 0.01 | COc1cc(-c2cnn(C3CCN(C(=O)C4(F)CN(C(=O)/C=C/C(F)(F)F)C4)CC3)c2C)cn2ncc(C#N)c12 [Example 155, (E)-6-(1-(1-(3-fluoro-1-(4,4,4-trifluorobut-2-enoyl)azetidine-3-carbonyl)piperidin-4-yl)-5-methyl-1H-pyrazol-4-yl)-4-methoxypyrazolo [1,5-a]pyridine-3-carbonitrile] |
| 0.035 | 0.013 | 0.016 | 0.096 | 0.002 | C=CC(=O)N1CC(S(=O)(=O)N2CCC(n3cc(-c4cc(OC)c5c(C#N)cnn5c4)cn3)CC2)C1 [Example 134, 6-(1-(1-((1-acryloylazetidin-3-yl)sulfonyl)piperidin-4-yl)-1H-pyrazol-4-yl)-4-methoxypyrazolo[1,5-a]pyridine-3-carbonitrile] |
| 0.336 | 0.05 | 0.019 | 0.888 | 0.005 | COc1cc(-c2cnn(C3CCN(C(=O)C4(OC)CN(C(=O)/C=C/CN(C)C)C4)CC3)c2C)cn2ncc(Cl)c12 [Example 171, (E)-1-(3-(4-(4-(3-chloro-4-methoxypyrazolo [1,5-a]pyridin-6-yl)-5-methyl-1H-pyrazol-1-yl)piperidine-1-carbonyl)-3-methoxyazetidin-1-yl)-4-(dimethylamino)but-2-en-1-one] |
| 0.052 | 2.83 | 0.004 | ≥ 5 | 0.006 | COc1cc(-c2cnn(C3CCN(C(=O)C4CN(C(=O)/C=C/CN5CCOCC5)C4)CC3)c2)cn2ncc(C#N)c12 [Example 184, (E)-4-methoxy-6-(1-(1-(1-(4-morpholinobut-2-enoyl)azetidine-3-carbonyl)piperidin-4-yl)-1H-pyrazol-4-yl)pyrazolo[1,5-a]pyridine-3-carbonitrile] |
| 0.788 | 0.175 | 0.08 | 0.751 | 0.049 | COc1cc(-c2cnc(N3CCN(C(=O)C4(F)CN(C(=O)/C=C/CN(C)C)C4)CC3)cc2C)cn2ncc(C#N)c12 [Example 169, (E)-6-(6-(4-(1-(4-(dimethylamino)but-2-enoyl)-3-fluoroazetidine-3-carbonyl)piperazin-1-yl) -4-methylpyridin-3-yl)-4-methoxypyrazolo [1,5-a]pyridine-3-carbonitrile] |
| 0.04 | 3.91 | 0.005 | ≥ 5 | 0.006 | COc1cc(-c2cnn(C3CCN(C(=O)C4CN(C(=O)/C=C/CO)C4)CC3)c2)cn2ncc(C#N)c12 [Example 141, (E)-6-(1-(1-(1-(4-hydroxybut-2-enoyl)azetidine-3-carbonyl)piperidin-4-yl)-1H-pyrazol-4-yl)-4-methoxypyrazolo [1,5-a]pyridine-3-carbonitrile] |
| 0.014 | 0.045 |  | 0.13 | 0.002 | COc1cc(-c2cnn(C3CCN(C(=O)C4CN(C(=O)/C=C/CBr)C4)CC3)c2)cn2ncc(C#N)c12 [Example 180, (E)-6-(1-(1-(1-(4-bromobut-2-enoyl)azetidine-3-carbonyl)piperidin-4-yl)-1H-pyrazol-4-yl)-4-methoxypyrazolo[1,5-a]pyridine-3-carbonitrile] |
| 0.572 | 0.384 | 0.038 |  | 0.053 | C=CC(=O)N1CC(C(=O)N2CCC(n3cc(-c4cc(OC)c5c(C#N)cnn5c4)c(CC)n3)CC2)C1 [Example 97, 6-(1-(1-(1-acryloylazetidine-3-carbonyl)piperidin-4-yl)-3-ethyl-1H-pyrazol-4-yl)-4-methoxypyrazolo[1,5-a]pyridine-3-carbonitrile] |
